Laboratory results published in ChEMBL document CHEMBL1268849, “A conformationally constrained inhibitor with an enhanced potency for β-tryptase and stability against semicarbazide-sensitive amine oxidase (SSAO)” (Bioorg Med Chem Lett, 2010).

Tests used:
[1] = Inhibition of human tryptase-beta using chromogenic substrate S-2366 after 30 mins by spectrophotometry
[2] = system: semicarbazide-sensitive amine oxidase (SSAO); experiment: Chemical stability in presence of 56 ug/mL of human recombinant semicarbazide-sensitive amine oxidase assessed as compound remaining after 24 hrs by LC/MS method; format: physicochemical; settings: read-out: Stability
[3] = Metabolic stability in human liver microsomes after 20 mins; format: ADME, Microsome; settings: read-out: Stability
[4] = Metabolic stability in guinea pig liver microsomes after 20 mins; format: ADME, Cavia porcellus, Microsome; settings: read-out: Stability
[5] = Metabolic stability in rat liver microsomes after 20 mins; format: ADME, Microsome; settings: read-out: Stability
hERG (KCNH2) = hERG (KCNH2) (Homo sapiens, UniProt Q12809); experiment: Inhibition of human ERG at 10 uM
Chain of hERG (KCNH2) (Q12809 whole entry): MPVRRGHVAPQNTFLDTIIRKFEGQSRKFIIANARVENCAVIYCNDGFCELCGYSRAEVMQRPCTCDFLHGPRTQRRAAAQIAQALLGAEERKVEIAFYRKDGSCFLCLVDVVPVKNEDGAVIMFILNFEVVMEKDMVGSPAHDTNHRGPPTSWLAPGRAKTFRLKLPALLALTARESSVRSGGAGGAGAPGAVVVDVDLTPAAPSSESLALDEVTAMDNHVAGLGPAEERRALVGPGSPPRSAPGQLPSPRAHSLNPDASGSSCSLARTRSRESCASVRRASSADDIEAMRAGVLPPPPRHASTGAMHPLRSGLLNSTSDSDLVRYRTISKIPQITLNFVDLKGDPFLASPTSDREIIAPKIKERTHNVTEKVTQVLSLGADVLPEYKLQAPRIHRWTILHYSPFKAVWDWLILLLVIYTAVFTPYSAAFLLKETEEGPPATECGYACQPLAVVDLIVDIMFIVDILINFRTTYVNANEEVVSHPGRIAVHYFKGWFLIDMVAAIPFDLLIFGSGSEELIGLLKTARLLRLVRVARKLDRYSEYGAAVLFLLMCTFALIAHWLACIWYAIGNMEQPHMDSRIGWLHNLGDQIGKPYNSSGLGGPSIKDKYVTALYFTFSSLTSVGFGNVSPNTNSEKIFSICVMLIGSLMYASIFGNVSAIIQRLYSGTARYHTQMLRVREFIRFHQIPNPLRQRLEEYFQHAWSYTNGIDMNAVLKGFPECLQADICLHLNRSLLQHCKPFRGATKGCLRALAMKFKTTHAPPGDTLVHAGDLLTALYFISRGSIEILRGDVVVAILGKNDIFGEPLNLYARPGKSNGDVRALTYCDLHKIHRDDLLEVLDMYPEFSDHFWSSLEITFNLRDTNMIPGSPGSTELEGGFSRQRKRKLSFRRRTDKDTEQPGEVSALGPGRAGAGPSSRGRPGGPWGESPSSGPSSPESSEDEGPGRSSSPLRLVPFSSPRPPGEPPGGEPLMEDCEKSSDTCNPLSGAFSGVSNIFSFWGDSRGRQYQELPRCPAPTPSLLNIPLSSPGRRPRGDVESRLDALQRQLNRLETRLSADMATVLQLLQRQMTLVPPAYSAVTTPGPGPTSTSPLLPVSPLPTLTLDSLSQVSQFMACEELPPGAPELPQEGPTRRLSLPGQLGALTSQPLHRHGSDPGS

Cytochrome P450 3A4 = Cytochrome P450 3A4 (Homo sapiens, UniProt P08684); experiment: Inhibition of CYP3A4; format: ADME
Chain of Cytochrome P450 3A4 (P08684 whole entry): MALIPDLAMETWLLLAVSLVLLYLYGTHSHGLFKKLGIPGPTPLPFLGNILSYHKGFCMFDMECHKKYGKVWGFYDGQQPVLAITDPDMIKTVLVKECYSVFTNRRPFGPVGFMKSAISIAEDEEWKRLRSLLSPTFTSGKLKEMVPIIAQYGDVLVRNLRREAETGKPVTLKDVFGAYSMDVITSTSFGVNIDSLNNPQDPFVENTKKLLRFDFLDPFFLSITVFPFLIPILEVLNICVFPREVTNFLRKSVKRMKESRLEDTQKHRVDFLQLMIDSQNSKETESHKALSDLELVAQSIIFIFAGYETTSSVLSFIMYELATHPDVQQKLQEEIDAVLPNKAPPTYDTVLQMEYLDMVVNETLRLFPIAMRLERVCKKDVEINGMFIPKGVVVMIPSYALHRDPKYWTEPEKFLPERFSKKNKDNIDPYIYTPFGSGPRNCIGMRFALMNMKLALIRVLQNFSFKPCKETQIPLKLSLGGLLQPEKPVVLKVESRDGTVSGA

SMILES	Ki [1] [nM]	remaining at 24 h [2] [%]	remaining at 20 min [3] [%]	remaining at 20 min [4] [%]	remaining at 20 min [5] [%]	inhibition at 10 µM (hERG (KCNH2)) [%]	INH (Cytochrome P450 3A4) [µM]
COCCn1cc(C(=O)N2CCC(c3cc(CN)ccc3F)CC2)c2ccccc21	54.2	67	–	–	–	–	–
COCCn1cc(C(=O)N2CCC(c3cc(CN)ccc3F)CC2)c2c(C(=O)N(C)C)cccc21.Cl	20	100	67	69	92	16	> 30
